The values below come from US20090226500A1, “SUTURES AND ANTI-SCARRING AGENTS” (Angiotech Pharmaceuticals, Inc, priority 2006, published 2009).

Where a name gives a salt, the structure may show the parent alone.

The subject of one assay is human fibroblasts. As to the kind of experiment: Cell proliferation of fibroblasts. As to conditions: Fibroblast, 72 h, read-out: IC50 cell proliferation of fibroblasts. It is filed as cell-based. Here is the method:
Fibroblasts at 70-90% confluency are trypsinized, replated at 600 cells/well in media in 96-well plates and allowed to attachment overnight. […] Each drug concentration is tested in triplicate wells. Plates containing fibroblasts and drug substance are incubated at 37° C. for 72 hours.
To terminate the assay, the media is removed by gentle aspiration. A 1/400 dilution of CYQUANT 400×GR™ dye indicator (Molecular Probes; Eugene, Oreg.) is added to 1× Cell Lysis buffer, and 200 μL of the mixture is added to the wells of the plate. Plates are incubated at room temperature, protected from light for 3-5 minutes.
Take `NCCCNCCCCNCCCN` [Spermine tetrahydrochloride]: the IC50 lay in the range of 600 to 1200 nM.

The same assay, now with this note: Fibroblast, 72 hours, CYQUANT, read-out: IC50 cell proliferation of fibroblasts.
For the compound `O=C1CCc2cc(OCCCCc3nnnn3C3CCCCC3)ccc2N1` [Cliostazol], the IC50 was 1200 to 10000 nM.

Regarding `CCOC(=O)COc1ccc2c(C)c(CCN(CC)CC)c(=O)oc2c1Cl` [Cloricromene], the IC50 lay in the range of 1200 to 10000 nM. The same measure, in the same setting: to `COc1cc(/C=C/C(=O)CC(=O)/C=C/c2ccc(O)c(OC)c2)ccc1O` [Curcumin, Diferuloylmethane] belongs 1200 to 10000 nM; to `CN(C)/N=N/c1[nH]cnc1C(N)=O` [Dacarbazine], 10 to 100 nM; to `Nc1ncn([C@H]2C[C@H](O)[C@@H](CO)O2)c(=O)n1` [Decitabine, 5-Aza-2-deoxycytidine], 100 to 600 nM. The same measure, in the same setting: in the case of `O=c1oc2ccccc2c(O)c1Cc1c(O)c2ccccc2oc1=O` [Dicumarol, 3,3-Methylenebis(4-hydroxycoumarin)] it was 1200 to 10000 nM; in that of `CC(=O)OCC(=O)[C@@]1(OC(C)=O)[C@@H](C)C[C@H]2[C@@H]3C[C@H](F)C4=CC(=O)C=C[C@]4(C)[C@@]3(F)[C@@H](O)C[C@@]21C` [Diflorasone diacetate], 1200 to 10000 nM; in that of `Cc1cc(O)c2c(c1)C(=O)c1cc(O)cc(O)c1C2=O` [Emodin, 6-Methyl-1,3,8-trihydroxyanthraquinone], 1200 to 10000 nM. On the same count and under the same terms, to `CCOC(=O)[C@H](CCc1ccccc1)N[C@@H](C)C(=O)N1CCC[C@H]1C(=O)O` [Enalapril] belongs 1200 to 10000 nM; to `COC(=O)C=Cc1cc(O)ccc1O` [Erbstatin analog, Methyl 2,5-dihydroxycinnamate], 1200 to 10000 nM. `O=C(O)CSCC(=O)NC1CCSC1=O` (stereo not shown) [Erdosteine]: the IC50 fell in the range of 1200 to 10000 nM.

As for `NC(N)=Nc1nc(CSCCC(N)=NS(N)(=O)=O)cs1` [Famotidine], the IC50 lay in the range of 100 to 600 nM. Still for that read-out and setting: in the case of `O=S(=O)(c1cccc2cnccc12)N1CCCNCC1` [Fasudil] it was 600 to 1200 nM; in that of `Nc1nc(F)nc2c1ncn2[C@@H]1O[C@H](COP(=O)(O)O)[C@@H](O)[C@@H]1O` [Fludarabine Phosphate], 1200 to 10000 nM; in that of `CC(C)n1c(/C=C/C(O)CC(O)CC(=O)O)c(-c2ccc(F)cc2)c2ccccc21` (stereo not shown) [Fluvastatin], 100 to 600 nM. On the same count and under the same terms, in the case of `COc1ccc(-c2coc3cc(O)ccc3c2=O)cc1` [Formononetin, 7-Hydroxy-4-methoxyisoflavone] it was 100 to 600 nM. As for `Cc1ccc(C)c(OCCCC(C)(C)C(=O)O)c1` [Gemfibrozil], the IC50 is 10 to 100 nM. On the same count and under the same terms, to `CCCCCCC(C)(C)c1cc(O)c2c(c1)OC(C)(C)[C@@H]1CC=C(CO)C[C@@H]21` [HU-210] belongs 1200 to 10000 nM. In the case of `CCC(=O)O[C@]1(C(=O)CCl)[C@@H](C)C[C@H]2[C@@H]3C[C@H](F)C4=CC(=O)C=C[C@]4(C)[C@@]3(F)[C@@H](O)C[C@@]21C` [Halobetasol Propionate], the IC50 was in the range of 1200 to 10000 nM.

Take `COc1ccc([C@@H]2CC(=O)c3c(O)cc(O)cc3O2)cc1O` [Hesperetin]: the IC50 was 0.1 to 10 nM. Same read-out and setting: in the case of `COC(=O)C[C@](O)(CCCC(C)(C)O)C(=O)O[C@@H]1C(OC)=C[C@]23CCCN2CCc2cc4c(cc2[C@H]13)OCO4` [Homoharringtonine] it was 10 to 100 nM. On the same count and under the same terms, to `NNc1nncc2ccccc12` [Hydralazine hydrochloride] belongs 1200 to 10000 nM; to `O=C(Nc1cc(C(F)(F)F)cc(C(F)(F)F)c1)c1cc(Cl)ccc1O` [IMD-0354], 100 to 600 nM. On the same count and under the same terms, to `O=c1[nH]cnc2c1ncn2[C@@H]1O[C@H](CO)[C@@H](O)[C@H]1O` [INO-1001] belongs 1200 to 10000 nM; to `COC1=C(OC)C(=O)C(CCCCCCCCCCO)=C(C)C1=O` [Idebenone], 1200 to 10000 nM; to `c1c[nH]cn1` [Imidazole], 1200 to 10000 nM.

In the case of `CCc1c2c(nc3ccc(OC(=O)N4CCC(N5CCCCC5)CC4)cc13)-c1cc3c(c(=O)n1C2)COC(=O)[C@]3(O)CC` [Irinotecan Hydrochloride Trihydrate], the IC50 was in the range of 600 to 1200 nM. On the same count and under the same terms, to `Nc1nc(N)nc(-c2cc(Cl)ccc2Cl)n1` [Irsogladine] belongs 1200 to 10000 nM; to `CO[C@@H]1[C@@H](O[C@@H]2O[C@H](C)[C@@H](O[C@H]3C[C@@](C)(O)[C@@H](OC(=O)CC(C)C)[C@H](C)O3)[C@H](N(C)C)[C@H]2O)[C@@H](CC=O)C[C@@H](C)[C@@H](O)/C=C/C=C/C[C@@H](C)OC(=O)C[C@H]1OC(C)=O` [Josamycin], 0.1 to 10 nM.

With `O=c1c(O)c(-c2ccc(O)cc2)oc2cc(O)cc(O)c12` [Kaempferol], the IC50 fell in the range of 600 to 1200 nM. Same read-out and setting: to `CN(C)C[C@@H]1CCn2cc(c3ccccc32)C2=C(C(=O)NC2=O)c2cn(c3ccccc23)CCO1` [LY333531, Ruboxistaurin] belongs 1200 to 10000 nM; to `CCCCc1nc(Cl)c(CO)n1Cc1ccc(-c2ccccc2-c2nn[nH]n2)cc1` [Losartan potassium], 1200 to 10000 nM.

For the compound `NC(Cc1ccc(N(CCCl)CCCl)cc1)C(=O)O` (stereo not shown) [Melphalan], the IC50 fell in the range of 1200 to 10000 nM. On the same count and under the same terms, to `CCC(=O)O[C@@H]1CC(=O)O[C@H](C)C/C=C/C=C/[C@H](O)[C@H](C)C[C@H](CC=O)[C@H](O[C@@H]2O[C@H](C)[C@@H](O[C@H]3C[C@@](C)(O)[C@@H](OC(=O)CC)[C@H](C)O3)[C@H](N(C)C)[C@H]2O)[C@H]1OC` [Midecamycin, Leucomycin V 3,4B-dipropionate] belongs 1200 to 10000 nM. For `O[C@@H]([C@H](O)[C@H](O)CBr)[C@H](O)CBr` [Mitobronitol], the IC50 lay within 100 to 600 nM. Take `NC(=O)c1ncn([C@@H]2O[C@H](CO)[C@@H](O)[C@H]2O)c1O` [Mizoribine]: the IC50 was in the range of 10 to 100 nM.

In the case of `O=c1c(O)c(-c2cc(O)c(O)c(O)c2)oc2cc(O)cc(O)c12` [Myricetin], the IC50 lay within 600 to 1200 nM. Still for that read-out and setting: to `CS(=O)(=O)Nc1ccc([N+](=O)[O-])cc1OC1CCCCC1` [NS-398] belongs 1200 to 10000 nM.

In the case of `CNCCC=C1c2ccccc2CCc2ccccc21` [Nortriptyline Hydrochloride], the IC50 lay within 0.1 to 10 nM. `CN(C)[C@@H]1C(O)=C(C(N)=O)C(=O)[C@@]2(O)C(O)=C3C(=O)c4c(O)cccc4[C@@](C)(O)[C@H]3[C@H](O)[C@@H]12` [Oxytetracycline hydrochloride]: the IC50 lay in the range of 100 to 600 nM.

For `NCCC(O)(P(=O)(O)O)P(=O)(O)O` [Pamidronate disodium], the IC50 is 100 to 600 nM. On the same count and under the same terms, in the case of `OC1(c2ccc(Cl)c(C(F)(F)F)c2)CCN(CCCC(c2ccc(F)cc2)c2ccc(F)cc2)CC1` [Penfluridol] it was 600 to 1200 nM.

Turning to `N=C(N)c1ccc(OCCCCCOc2ccc(C(=N)N)cc2)cc1` [Pentamidine], the IC50 is 600 to 1200 nM. Same read-out and setting: to `C1CCNCC1` [Piperidine] belongs 1200 to 10000 nM; to `O=C(CCBr)N1CCN(C(=O)CCBr)CC1` [Pipobroman, N,N-Bis(3-bromopropionyl)piperazine], 1200 to 10000 nM.

In the case of `Cc1ccc(=O)n(-c2ccccc2)c1` [Pirfenidone], the IC50 fell in the range of 10 to 100 nM. Turning to `O=C(O)C[C@H](O)C[C@H](O)/C=C/c1c(C2CC2)nc2ccccc2c1-c1ccc(F)cc1` [Pitavastatin], the IC50 lay in the range of 100 to 600 nM. The same measure, in the same setting: to `CC[C@H](C)C(=O)O[C@H]1C[C@H](O)C=C2C=C[C@H](C)[C@H](CC[C@@H](O)C[C@@H](O)CC(=O)O)[C@H]21` [Pravastatin] belongs 1200 to 10000 nM.

In the case of `O=c1c(O)c(-c2ccc(O)c(O)c2)oc2cc(O)cc(O)c12` [Quercetin dihydrate], the IC50 was in the range of 100 to 600 nM.

Consider `C#C[C@]1(O)CC[C@H]2[C@@H]3CCc4cc(OC5CCCC5)ccc4[C@H]3CC[C@@]21C` [Quinestrol, 17a-Ethynylestradiot 3-cyclopentyl ether], for which the IC50 lay within 1200 to 10000 nM. On the same count and under the same terms, to `C[C@@H]1C[C@H]2O[C@@H]2/C=C\C=C\C(=O)Cc2c(Cl)c(O)cc(O)c2C(=O)O1` [Radicicol] belongs 10 to 100 nM.

In the case of `Cc1nc2ccc(CN(C)c3ccc(C(=O)N[C@@H](CCC(=O)O)C(=O)O)s3)cc2c(=O)[nH]1` [Raltitrexed], the IC50 lay in the range of 10 to 100 nM. The same measure, in the same setting: to `COc1ccc(C2CNC(=O)C2)cc1OC1CCCC1` (stereo not shown) [Rolipram] belongs 100 to 600 nM; to `CC(C)c1nc(N(C)S(C)(=O)=O)nc(-c2ccc(F)cc2)c1/C=C/[C@@H](O)C[C@@H](O)CC(=O)O` [Rosuvastatin], 1200 to 10000 nM; to `CC(=O)c1c(O)c(C)c(O)c(Cc2c(O)c3c(c(C(=O)/C=C/c4ccccc4)c2O)OC(C)(C)C=C3)c1O` [Rottlerin], 1200 to 10000 nM. With `CC(=O)OCC(=O)NCCCOc1cccc(CN2CCCCC2)c1` [Roxatidine acetate], the IC50 lay in the range of 600 to 1200 nM. Same read-out and setting: in the case of `Nc1nccc(-c2c(-c3ccc(F)cc3)ncn2C2CCNCC2)n1` [SB 220025] it was 1200 to 10000 nM. `COc1cccc(-c2ccc(NC(=O)C3=C(C(=O)O)CCC3)c(F)c2)c1` [SC12267]: the IC50 was 1200 to 10000 nM. The same measure, in the same setting: to `Nc1nc2c(cnn2CCc2ccccc2)c2nc(-c3ccco3)nn12` [SCH-58261] belongs 1200 to 10000 nM. On the same count and under the same terms, to `CCCCCCCCCCCCCCC[C@H](O)[C@@H](N)CO` [Safingol, L-threo-Dihydrosphingosine] belongs 600 to 1200 nM; to `O=C(/C=C/c1ccccc1)NC(NC(=S)Nc1cccc2cccnc12)C(Cl)(Cl)Cl` (stereo not shown) [Salubrinal], 1200 to 10000 nM; to `CCCc1nn(C)c2c(=O)[nH]c(-c3cc(S(=O)(=O)N4CCN(C)CC4)ccc3OCC)nc12` [Sildenafil Citrate], 1200 to 10000 nM. Same read-out and setting: in the case of `NCCCCNCCCN` [Spermidine trihydrochloride] it was 1200 to 10000 nM; in that of `Cc1ccnc(NS(=O)(=O)c2ccc(N)cc2)n1` [Sulfamerazine], 1200 to 10000 nM; in that of `COc1cc([C@@H]2c3cc4c(cc3[C@@H](O[C@@H]3O[C@@H]5CO[C@@H](c6cccs6)O[C@H]5[C@H](O)[C@H]3O)[C@H]3COC(=O)[C@H]23)OCO4)cc(OC)c1O` [Teniposide], 10 to 100 nM.

Regarding `CN(C/C=C/C#CC(C)(C)C)Cc1cccc2ccccc12` [Terbinafine], the IC50 lay within 10 to 100 nM.
